{"source": "patent US20250186646A1", "about": "“Use of Volatile Compositions to Limit or Eliminate Perception of Fecal Malodour” (Firmenich SA, priority 2016, published 2025)", "key": {"[1]": {"test_system": "fecal malodour reconstitution", "assay": "Olfactometer blind sensory evaluation of test and control formulations (Example 15)", "type": "in vivo", "design": "Fecal Score / Freshness Score / Pleasantness Score: scale not given here", "conditions": "for Fecal Score: in combination with fecal reconstitution; for Fecal Score left: relative to fecal reconstitution alone (100)", "method": "(§1) The performance of a test formulation containing LILYFLORE, Violet AT and Isoraldeine to counteract the fecal malodour perceived from a fecal malodour reconstitution was tested. The amount of each single ingredient in the test formulation was the same as the corresponding concentration of the ingredient that was incorporated into the Floral compositions. Separate control formulations were also included, comprising LILYFLORE, Violet AT and Isoraldeine separately, at the same concentration as each single ingredient in the test formulation. The sensory evaluation was blind, and performed using olfactometers and a set of more than 30 participants evaluating blind. In parallel, the headspace concentration of the ingredients from the test and three control formulations was determined.\nas §1, with “of another” for “of a”, “and dihydrolinalol” for “and Isoraldeine”, “tested.” for “tested. The amount of each single ingredient in the test formulation was the same as the corresponding concentration of the ingredient that was incorporated into the Floral compositions.”\nThe performance of another test formulation containing LILYFLORE, isoraldeine, Violet AT and dihydrolinalol to counteract the fecal malodour perceived from a fecal malodour reconstitution was tested. Separate control formulations were also included, comprising LILYFLORE, Violet AT, isoraldeine and dihydrolinalol separately, at the same concentration as each single ingredient in the test formulation. The sensory evaluation was blind, and performed using olfactometers and a set of more than 30 participants evaluating blind. In parallel, the headspace concentration of the ingredients from the test and […] control formulations was determined."}, "butyric acid": {"test_system": "butyric acid", "assay": "Reduction of perceived intensity of butyric acid by MOCs (Table 16)", "type": "in vivo"}, "[2]": {"assay": "Olfactory detection thresholds (ODT)", "conditions": "gas phase"}, "butyric acid receptors": {"test_system": "butyric acid receptors", "assay": "Ex vivo live neuron assay antagonism screening", "type": "cell-based, mice", "conditions": "butyric acid malodour target", "text": "In the ex vivo live neuron assay, olfactory sensory neurons (OSNs) are extracted from the olfactory epithelium of mice and can be tested for responses to sequentially delivered stimuli, where responses are detected through live-cell calcium-imaging microscopy. It has been established through prior research in the field that the vast majority of extracted OSNs express 1 out of the approximately 1200 odourant receptors (ORs) present in the genome of a mouse, such that in our samples of extracted OSNs, the majority of the 1200 ORs should have been represented in at least one OSN. Since the responses of the OSNs to the delivered stimuli are entirely driven by the expressed OR, the OSNs selectively detect and collectively encode the identity and intensity of odourants. By stimulating the OSNs with MO molecules and measuring the response of each OSN, the subset in which a response is induced is those that detect and therefore presumably encode the MO. By subsequently delivering a mixture of MO and a candidate antagonist to the same cells, the degree of suppression of signal in each MO-responsive OSN can be determined (“level of inhibition”). […] In addition, the proportion of MO-responsive OSNs displaying low, medium and high inhibition was calculated. […]"}}}
{"smiles": "C=CC(C)(O)CCCC(C)C", "note": "(racemic) [Dihydrolinalol, (+−)-3,7-DIMETHYL-1-OCTEN-3-OL]", "values": [{"measurement": "Fecal % Redn", "setting": "[1]; Table 19", "value": 35, "unit": "%"}, {"measurement": "Freshness Score", "setting": "[1]; Table 19", "value": 3.9}, {"measurement": "Pleasantness Score", "setting": "[1]; Table 19", "value": 3.5}, {"measurement": "Fecal Score", "setting": "[1]; Table 19", "value": 5.6}, {"measurement": "Fecal Score left", "setting": "[1]; Table 19", "value": 65}, {"measurement": "Fecal % Redn", "setting": "[1]; Table 20", "value": 30, "unit": "%"}, {"measurement": "Freshness Score", "setting": "[1]; Table 20", "value": 3.2}, {"measurement": "Pleasantness Score", "setting": "[1]; Table 20", "value": 3.2}, {"measurement": "Fecal Score", "setting": "[1]; Table 20", "value": 6.1}, {"measurement": "Fecal Score left", "setting": "[1]; Table 20", "value": 70}, {"measurement": "Butyric acid Dyn Conc", "setting": "butyric acid; concentration at which the MOC reduces the perceived intensity of butyric acid", "value": 0.76, "unit": "µg/L"}, {"measurement": "Butyric acid Reduction", "setting": "butyric acid; perceived intensity of butyric acid, at the Dyn Conc", "value": 64}, {"measurement": "olfactory detection thresholds (ODT)", "setting": "[2]", "value": 0.00137, "unit": "µg/L"}, {"measurement": "antagonism of malodour receptors", "setting": "butyric acid receptors", "value": "antagonist of butyric acid receptors"}]}
